PMC7145549, “A general strategy exploiting m^5C duplex-remodelling effect for selective detection of RNA and DNA m^5C methyltransferase activity in cells” (Nucleic Acids Research, 2019)
Entries after “also recorded” stand apart in the source; their conditions may differ. Like-named read-outs stand apart in the source and are kept apart here.

Tests used:
[1] = Fluorescence emission and quantum yield analysis of probes; type: physicochemical; conditions: in MeOH, reference standard, authors' conditions
Experimental: Fluorescence analysis was performed using a Cary Eclipse fluorescence spectrophotometer, as previously reported with modifications ([36]). The fluorescence emission spectra (λem = 400–600 nm) of the probes were recorded in a quartz cuvette at 37°C, at a total stand concentration 5 μM in a buffer of 10 mM sodium phosphate buffer (pH 7.4) containing 150 mM NaCl and 20 mM MgCl2. An average of five scans was recorded. Background fluorescence spectra were acquired after the probe has been incubated for 30 min at 37°C. For determination of fluorescence quantum yields of the m^5C-probes, see Supplementary Data.
The fluorescence quantum yields (ΦF) of pyrene (Py)-labelled DNA probes 11a-c were determined as previously described.7,11 UV absorption of the probes λex 340 nm was measured on a Cary-300 UV-Visible spectrophotometer (Varian Inc.) from 0.1 to 0.03 absorbance units in 0.01 increments. The fluorescence emission spectra were immediately measured afterwards in a Cary Eclipse (Varian Inc.) fluorescent spectrophotometer with an excitation wavelength of 340 nm. Pyrenebutanoic acid (PBA) in methanol was used as a reference, and was calculated using the equation below. The reported quantum yields are an average of three measurements within ±10%. […]
ΦF(PBA) is the cross-calibrated value for the fluorescence quantum emission yield of pyrenebutanoic acid (PBA) in MeOH. […]

[2] = free fluorophore; cited from earlier work
NSUN2 [3] = biological target: T1, NSUN2 (Homo sapiens, UniProt Q08J23); experiment: Cell-based m5C-probe methyltransferase assay (flow cytometry, probe 9a)
T1 sequence (Q08J23 whole entry): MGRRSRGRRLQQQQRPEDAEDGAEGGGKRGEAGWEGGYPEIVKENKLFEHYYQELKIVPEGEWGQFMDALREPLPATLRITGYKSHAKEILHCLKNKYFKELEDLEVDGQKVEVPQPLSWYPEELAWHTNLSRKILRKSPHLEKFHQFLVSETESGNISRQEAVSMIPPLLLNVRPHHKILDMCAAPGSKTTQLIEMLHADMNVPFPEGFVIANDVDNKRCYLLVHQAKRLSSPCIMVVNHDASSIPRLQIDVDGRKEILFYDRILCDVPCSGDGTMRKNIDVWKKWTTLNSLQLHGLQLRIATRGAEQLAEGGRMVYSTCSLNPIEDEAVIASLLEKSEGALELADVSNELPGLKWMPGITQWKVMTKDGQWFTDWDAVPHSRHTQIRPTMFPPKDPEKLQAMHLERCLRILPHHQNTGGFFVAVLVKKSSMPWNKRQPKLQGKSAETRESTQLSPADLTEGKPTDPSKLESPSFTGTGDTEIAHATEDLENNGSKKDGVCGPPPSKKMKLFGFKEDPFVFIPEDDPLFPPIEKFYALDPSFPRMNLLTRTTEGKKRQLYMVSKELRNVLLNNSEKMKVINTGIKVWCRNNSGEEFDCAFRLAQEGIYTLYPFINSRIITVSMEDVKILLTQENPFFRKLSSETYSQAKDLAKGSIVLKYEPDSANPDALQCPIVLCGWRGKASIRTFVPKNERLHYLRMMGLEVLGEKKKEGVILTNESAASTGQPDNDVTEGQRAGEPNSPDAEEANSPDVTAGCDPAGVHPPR
Experimental: The HeLa cells were pre-incubation with various concentrations of non-specific MTase inhibitors, including sinefungin, S-adenosyl-L-homocysteine (SAH), adenosine, and homocysteine at 37°C for 30 min. Nine different concentrations of inhibitors were used (0.1, 0.3, 1, 3, 10, 50, 100, 250, 1000 μM) and the final DMSO concentration was kept at less than 1% (v/v) of the assay mix. […] This was followed by the delivery of either the m^5C-probe 9a (10 μM) or control probe 10a (10 μM) into the cells via Lipofectamine 2000. Aliquots were then collected for flow cytometry measurements (λex 355 nm; λem 425–475 nm) at the indicated time points. The mean fluorescence intensity of at least 20 000 live cells was determined. IC50 determination: the IC50 values were then calculated from the variation in fluorescence at different inhibitor concentrations using nonlinear regression, with normalised dose-response fit on GraphPad Prism 6.0™. The assay was performed in triplicate for each inhibitor concentration. Z’ factor determination: the Z’ factor for our m^5C-probe assay was calculated using previously described method ([55]). For details, see Supplementary Data. […]
Cell-based m5C-probe methyltransferase assay
The HeLa cells were pre-incubation with various concentrations of DNA/RNA MTase inhibitors, including sinefungin, S-adenosyl-L-homocysteine (SAH), adenosine, and homocysteine at 37 °C for […]
and the final DMSO concentration was kept at less than 1% v/v of the assay mix. These concentrations […]
by the delivery of either the m5C-probe 9a (10 μM) or control probe 10a (10 μM) into the cells via Lipofectamine 2000, as described above. Aliquots were then collected for flow cytometry measurements (λex 355 nm; λem 425-475 nm) at the indicated time points. The mean fluorescence intensity of at least 20,000 live cells was determined.
For IC50 determination: the IC50 value were then calculated from the variation in fluorescence at different inhibitor concentrations using nonlinear regression, with normalised dose-response fit on GraphPad Prism 6.0™. The assay was performed in triplicate for each inhibitor concentration.
For the determination of Z’ factor: the Z’ factor for our m5C-probe assay was calculated using the method described by Zhang et al.17 A total of 40 independent assays were run with either sinefungin (1 mM; positive control) or DMSO (1% v/v; negative control). The Z’ factor was then calculated using […]
Where µp and µn are the means of the positive (p) and negative (n) controls σp and σn are the standard deviations of the positive (p) and negative (n) controls.

[4] = UV-based thermal denaturation / thermodynamic analysis; type: physicochemical; conditions: for increase in duplex stability on m5C methylation (ΔΔG°310): methylated vs unmethylated duplex
Experimental: UV-based thermal denaturation experiments
The melting of each duplex (1a, 1b, 7a, 7b, 11a and 11b) was performed on a Cary 300 UV-Visible Spectrophotometer (Varian) at a total strand concentration of 5 μM (unless otherwise stated) in 10 mM sodium phosphate buffer (pH 7.4), 150 mM NaCl and 20 mM MgCl2. Absorbance versus temperature profiles were recorded at 260 nm. The samples were first denatured by heating to 95 °C at 10 °C/min, followed by slow cooling to 25 °C at 0.4 °C/min to ensure a complete annealing of the strands. The melting transitions were then monitored by heating to 95 °C at 0.4 °C/min. To increase the accuracy of measurements, the sixth position was used to record the temperature data points by placing a temperature probe directly in the cuvette. Each oligo was measured at seven different concentrations (1, 2, 5, 10, 15, 20 and 30 μM), and a total of six independent melting transitions were measured for each concentration. The Tm values were determined by the Varian Cary Software using the baseline (alpha) method, which is defined as the point when the mole fraction of duplex was equal to 0.5. The melting transitions were generally found to be reproducible for all oligos studied.

DNMT3A = biological target: T2, DNMT3A (Homo sapiens, UniProt Q9Y6K1); experiment: In vitro DNMT3A inhibition assay with DNA m5C-probe 11a; type: biochemical; conditions: probe 11a 5 μM, DNMT3A 0.5 μM, 30 min; read-out: IC50 against DNMT3A
T2 construct: Full-length human DNMT3A protein containing N-terminal His-DDDDK tag was purchased from; His-DDDDK (N); purchased abcam plc; UK ab170408
T2 sequence (Q9Y6K1 whole entry, looked up): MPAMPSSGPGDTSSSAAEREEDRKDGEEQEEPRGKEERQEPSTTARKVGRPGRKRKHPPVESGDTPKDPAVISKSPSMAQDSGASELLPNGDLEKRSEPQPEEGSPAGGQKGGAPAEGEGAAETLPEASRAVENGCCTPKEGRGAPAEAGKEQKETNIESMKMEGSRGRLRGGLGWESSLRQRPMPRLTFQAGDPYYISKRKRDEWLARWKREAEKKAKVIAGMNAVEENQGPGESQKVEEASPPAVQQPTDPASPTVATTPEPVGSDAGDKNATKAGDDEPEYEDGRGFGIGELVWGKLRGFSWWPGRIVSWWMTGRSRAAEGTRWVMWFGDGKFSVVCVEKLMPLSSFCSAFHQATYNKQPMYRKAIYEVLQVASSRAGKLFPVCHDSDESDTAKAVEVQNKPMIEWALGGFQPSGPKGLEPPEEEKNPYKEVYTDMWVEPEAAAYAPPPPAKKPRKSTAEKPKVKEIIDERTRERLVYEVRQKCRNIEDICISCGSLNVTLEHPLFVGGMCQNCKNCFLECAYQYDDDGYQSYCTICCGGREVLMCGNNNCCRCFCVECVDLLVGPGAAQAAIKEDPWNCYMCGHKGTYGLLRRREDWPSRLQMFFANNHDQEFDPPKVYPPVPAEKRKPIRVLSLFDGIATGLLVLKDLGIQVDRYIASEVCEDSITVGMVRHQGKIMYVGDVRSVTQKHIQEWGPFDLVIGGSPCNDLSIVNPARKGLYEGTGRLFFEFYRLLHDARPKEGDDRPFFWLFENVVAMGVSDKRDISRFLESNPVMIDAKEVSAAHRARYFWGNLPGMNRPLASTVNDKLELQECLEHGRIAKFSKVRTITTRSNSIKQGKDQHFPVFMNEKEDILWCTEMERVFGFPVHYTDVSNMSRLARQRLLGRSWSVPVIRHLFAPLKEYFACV
Experimental: (§1) RNA methyltransferase assay: the assay was performed at 37°C in triplicate in a Corning Costar 96-well flat bottom black plate. Reaction consisted of enzyme (0.5 μM), methyl donor S-adenosyl-L-methionine (SAM; 200 μM), m^5C-probe 9a (substrate; 5 μM) or locked-probe 10a (control; 5 μM) in a 50 mM HEPES buffer (pH 7.4) containing 150 mM NaCl and 20 mM MgCl2. The final reaction volume is 25 μl. The time course of fluorescence activation was recorded immediately after the addition of enzyme with a Tecan ultra microplate reader (λex 360 nm; λem 465 nm). An average of five scans was recorded. DNA methyltransferase assay: the assay was performed as described above. Reaction consisted of enzyme (NSUN2 or DNMT3A; 0.5 μM), methyl donor S-adenosyl-L-methionine (SAM; 200 μM), DNA m^5C-probe 11a (substrate; 5 μM) in a 50 mM HEPES buffer (pH 7.4) containing 150 mM NaCl and 20 mM MgCl2. The fluorescence of the reaction was monitored at λem 400 nm (λex 340 nm).
Importantly, m^5C-probe 11a may also be applied to the inhibition study of DNMT3A. […] Work is currently underway to explore the possibility of employing both probes concurrently for the simultaneous detection of RNA and DNA m^5C MTase activity.

NSUN2 [5] = biological target: T1, NSUN2; experiment: In vitro m5C-probe fluorescence RNA methyltransferase assay; type: biochemical; parameters: Full-length human NSUN2 (containing C-terminal MYC/DDK tag; TP314459); MYC/DDK (C); purchased Origene Technologies Inc., USA TP314459; conditions: inhibitor 10 μM, probe 9a 5 μM, NSUN2 0.5 μM
Experimental: as §1
We next examined whether m^5C-probe 9a could function as fluorogenic substrate for RNA:m^5C MTase by testing it against NSUN2, which is of particular interest in light of emerging evidence linking NSUN2 with m^5C methylation of human mRNA ([14]) and its association with human cancers ([25–29]). […] The formation of methylated probe was measured by an increase in fluorescence signal at 465 nm (λex 360 nm).

[6] = CD conformational analysis at a range of MgCl2 concentrations; type: physicochemical; conditions: 25°C, pH 7.4, 150 mM NaCl, MgCl2 0-300 mM
Experimental: Circular dichroism (CD) spectroscopy
The CD spectra for the duplexes were obtained using a JASCO J-810 spectropolarimeter, as previously described.4 Measurements were carried out at 25 °C with 5 μM probes in a 10 mM sodium phosphate buffer (pH 7.4) containing 150 mM NaCl, and varying MgCl2 concentrations (0, 5, 10, 20, 100, and 300 mM). The concentrations were determined by UV absorbance at 260 nm (A260) using a NanoDrop ND-1000 UV-Visible Spectrophotometer. The oligo solutions were first heated to 90 °C for 5 min, and re-annealed by slow cooling to 4 °C at a rate of 1 °C/min. CD spectra were then recorded in quartz cuvettes (path length 1 mm, 400 μL) from 220 nm to 330 nm at 25 °C using a 10 nm/min scan speed, a spectral band width of 1 nm and a time constant of 4 s. All the spectra were subtracted with the buffer blank and smoothed using the Savitsky-Golay algorithm (polynomial order 10). […]

[7] = HeLa cells, 30 min pre-incubation with inhibitor, probe 9a 10 μM, flow cytometry, read-out: IC50 against NSUN2
[8] = pH 7.4, 150 mM NaCl, 20 mM MgCl2

Compound: O=C(O)CCCc1ccc2ccc3cccc4ccc1c2c34 [PBA, Pyrenebutanoic acid]
- fluorescence quantum yield [1]: 0.061

Compound: O=c1nc2[nH]c(-c3ccccc3)cc2c[nH]1 [^pC, 6-phenylpyrrolocytosine]
- quantum yield (ΦF) [2]: 0.31

Compound: Nc1ncnc2c1ncn2[C@@H]1O[C@H](CSCC[C@H](N)C(=O)O)[C@@H](O)[C@H]1O [SAH, S-adenosyl-L-homocysteine]
- IC50 (NSUN2 [3]; [7]): 3.1 µM

Compound: r(CG-C-GCG)2 [1a]
- increase in duplex stability on m5C methylation (ΔΔG°310) [4, 8]: ~3.3 kJ/mol

Compound: Nc1ncnc2c1ncn2[C@@H]1O[C@H](CO)[C@@H](O)[C@H]1O [adenosine]
- IC50 (DNMT3A): 106 µM
- IC50 (NSUN2 [3]; [7]): > 200 µM

Compound: NC(CCS)C(=O)O (centres unmarked) [homocysteine]
- IC50 (NSUN2 [3]; [7]): > 400 µM

Compound: d(CG-C-GCG)2 [7a]
- duplex stabilisation by m5C (ΔΔG°310 per m5C) ([4]; absence of MgCl2): 0.5 kcal/mol per m5C
- increase in melting temperature (Tm) per m5C ([4]; absence of MgCl2): 1.7 °C per m5C
- ΔΔH° 7a→7b [4, 8]: 30.5 kJ/mol
- ΔΔS° 7a→7b [4, 8]: 31.6 cal/mol/K
- increase in duplex stability on m5C methylation (ΔΔG°310) [4, 8]: 10.5 kJ/mol

Compound: Nc1ncnc2c1ncn2[C@@H]1O[C@H](C[C@@H](N)CC[C@H](N)C(=O)O)[C@@H](O)[C@H]1O [sinefungin]
- IC50 (DNMT3A): 0.7 µM
- IC50 (NSUN2 [3]): 8.9 µM
- effect of inhibitor on probe 9a fluorescence activation by NSUN2 (NSUN2 [5]): reduces significantly; also recorded: significant reduction in fluorescence intensity

Compound: d(CG-m^5C-GCG)2 [7b]
- midpoint MgCl2 concentration for B-Z transition [6]: ~ 10 mM
- free energy of B-to-Z transition (ΔΔG°T) ([4]; ΔG°310 of 7b (20 mM MgCl2) vs 7b* (no MgCl2)): ~6.28 kJ/mol
